Measurements from patent publication US20240306670A1, “BERBERINE ALKALOIDS IN THE PREVENTION AND/OR TREATMENT OF INTESTINAL DISEASE” (priority 2017, published 2024).

Assay: Feed palatability, feed and water consumption and bird productivity study (Example 2)
Assay type: in vivo, broiler chickens
Source text: A follow-up study to determine the feed palatability, feed and water consumption and bird productivity following incorporation of a single formulation of IRP001 hemisulfate salt (unmasked) when offered to broiler chickens in-feed or in-water. The study explores the optimal treatment regime in terms of treatment start date.
Phase 1: On receipt, two hundred and seventy (270) day-old commercial broiler chickens were allocated sequentially as they are received into sixteen (16) individual floor pens, each of 16 or 17 birds, on Day 0.
Phase 2: On receipt, the ninety (90) day-old commercial broiler chickens were allocated sequentially as they are received into four (4) individual floor pens, each of 22 or 23 birds, on Day 22.
Feed intake, water intake, weight gain and mortality were used as outcome parameters.
Individual daily feed intake and individual daily water intake data by pen and then by treatment group were calculated for Phases 1 and 2 (and for the entire trial for the birds in Group/Pen 2, 15 and 16 that continue through both Phases) using figures for total feed and water provided each day to each pen divided by the number of birds in each pen. Where errors in weighing, feeding/watering or recording (or other unexplained losses of feed and water) had occurred means were adjusted by using the mean value for the same pen on the 1-2 days either side of the apparent error. Similarly, group mean bodyweights were calculated for Phase 1 using total weight/total no. birds for Day 0 and individual weights from Days 7, 14, 21, 28, 35 and 42. Total (individual) feed consumed was calculated per treatment and feed conversion ratios per treatment calculated using the expression: total (individual) feed/total (individual) weight gain.
Individual daily feed intake and individual daily water intake were statistically compared by treatment within each phase and between Pens 2 and 15/16 over both phases using a linear model:—
and Tibco SPOTFIRE S+ 8.2 (2010). ‘Day’ was included in the model to allow for changes over time, ‘Pen’ as each treatment consisted of 2 pens while an interaction term ‘Treatment:Day’ was included to allow for treatment×time effects. Model suitability was confirmed by inspection of residual plots; in all instances the statistical model was appropriate.

[1] = Phase 1, IVP 1 g/L in-water Day 0-21, pens 3, 4
[2] = Phase 1, IVP 1 g/L in-water Day 1-21, pens 5, 6
[3] = Phase 1, IVP 1 g/L in-water Day 2-21, pens 7, 8
[4] = Phase 1, IVP 1 g/L in-water Day 3-21, pens 9, 10
[5] = Phase 1, IVP 1 g/L in-water Day 4-21, pens 11, 12
[6] = Phase 1, IVP 1 g/L in-water Day 5-21, pens 13, 14
[7] = Phase 1, IVP 1 g/L in-water Day 6-21 (42), pens 15, 16
[8] = Phase 2 (day-old chicks received Day 22), pens 19, 20, Day 25-42FEED (IVP in-feed)
[9] = Phase 2 summary, pens 15, 16, D6-21(42), IVP 1 g/L in-water, birds kept to day 42

Q: With COc1ccc2cc3[n+](cc2c1OC)CCc1cc2c(cc1-3)OCO2 [IRP001 chloride, berberine chloride] as the molecule, how does the FCR [1] read?
A: 1.49

Q: What about the Gain [1] of the same molecule?
A: 0.610 kg

Q: What about the “Group mean bodyweight Day 0” value [1] of the same molecule?
A: 43.2

Q: And the “Group mean bodyweight Day 7” value [1]?
A: 118.1

Q: What about the “Group mean bodyweight Day 14” value [1] of the same molecule?
A: 291.9

Q: And the “Group mean bodyweight Day 22” value [1]?
A: 653.6

Q: What about the “Total Feed” value [1] of the same molecule?
A: 0.908 kg

Q: And the FCR [2]?
A: 1.50

Q: And the Gain [2]?
A: 0.678 kg

Q: What about the “Group mean bodyweight Day 0” value [2] of the same molecule?
A: 42.4

Q: What about the “Group mean bodyweight Day 7” value [2] of the same molecule?
A: 125.8

Q: What about the “Group mean bodyweight Day 14” value [2] of the same molecule?
A: 309.0

Q: And the “Group mean bodyweight Day 22” value [2]?
A: 720.7

Q: What about the “Total Feed” value [2] of the same molecule?
A: 1.019 kg

Q: And the FCR [3]?
A: 1.45

Q: What about the Gain [3] of the same molecule?
A: 0.675 kg

Q: What about the “Group mean bodyweight Day 0” value [3] of the same molecule?
A: 44.6

Q: What about the “Group mean bodyweight Day 7” value [3] of the same molecule?
A: 132.0

Q: What about the “Group mean bodyweight Day 14” value [3] of the same molecule?
A: 315.4

Q: What about the “Group mean bodyweight Day 22” value [3] of the same molecule?
A: 719.4

Q: And the “Total Feed” value [3]?
A: 0.977 kg

Q: And the FCR [4]?
A: 1.44

Q: What about the Gain [4] of the same molecule?
A: 0.653 kg

Q: And the “Group mean bodyweight Day 0” value [4]?
A: 42.4

Q: And the “Group mean bodyweight Day 7” value [4]?
A: 118.6

Q: And the “Group mean bodyweight Day 14” value [4]?
A: 295.1

Q: And the “Group mean bodyweight Day 22” value [4]?
A: 695.7

Q: And the “Total Feed” value [4]?
A: 0.939 kg

Q: What about the FCR [5] of the same molecule?
A: 1.46

Q: And the Gain [5]?
A: 0.716 kg

Q: And the “Group mean bodyweight Day 0” value [5]?
A: 41.8

Q: And the “Group mean bodyweight Day 7” value [5]?
A: 138.8

Q: And the “Group mean bodyweight Day 14” value [5]?
A: 320.3

Q: What about the “Group mean bodyweight Day 22” value [5] of the same molecule?
A: 758.2

Q: What about the “Total Feed” value [5] of the same molecule?
A: 1.046 kg

Q: What about the FCR [6] of the same molecule?
A: 1.48

Q: And the Gain [6]?
A: 0.680 kg

Q: And the “Group mean bodyweight Day 0” value [6]?
A: 44.3

Q: And the “Group mean bodyweight Day 7” value [6]?
A: 135.3

Q: And the “Group mean bodyweight Day 14” value [6]?
A: 316.8

Q: What about the “Group mean bodyweight Day 22” value [6] of the same molecule?
A: 724.7

Q: What about the “Total Feed” value [6] of the same molecule?
A: 1.010 kg

Q: And the FCR [7]?
A: 1.40

Q: And the Gain [7]?
A: 0.723 kg

Q: And the “Group mean bodyweight Day 0” value [7]?
A: 43.8

Q: And the “Group mean bodyweight Day 7” value [7]?
A: 139.1

Q: And the “Group mean bodyweight Day 14” value [7]?
A: 325.2

Q: What about the “Group mean bodyweight Day 22” value [7] of the same molecule?
A: 767.2

Q: And the “Total Feed” value [7]?
A: 1.016 kg

Q: And the “Bodyweight Day 28” value [8]?
A: 112.4 g

Q: And the “Bodyweight Day 35” value [8]?
A: 273.6 g

Q: What about the “Bodyweight Day 42” value [8] of the same molecule?
A: 614.9 g

Q: And the FCR [8]?
A: 1.56

Q: What about the Feed [8] of the same molecule?
A: 0.783 kg

Q: And the Gain [8]?
A: 0.502 kg

Q: And the “Bodyweight Day 28” value [9]?
A: 1.16 kg

Q: And the “Bodyweight Day 35” value [9]?
A: 1.66 kg

Q: What about the “Bodyweight Day 42” value [9] of the same molecule?
A: 2.39 kg

Q: What about the FCR [9] of the same molecule?
A: 1.64

Q: And the Feed [9]?
A: 3.841 kg

Q: And the Gain [9]?
A: 2.346 kg
